Reference: US20250268919A1, “COMPOUNDS FOR THE TREATMENT OF CANCER” (Amneal Pharmaceuticals LLC, priority 2021, published 2025)
Each block holds one compound with its values, some of them ahead of it.

Key:
in vitro [1] = conditions: human, Caco-2
MCF7 tumor = experiment: Anticancer efficacy of compound 121 in nude mice bearing MCF7 tumor; assay type: in vivo; conditions: 1 mg/mouse (~33.3 mg/kg) subcutaneously; MCF-7 xenograft mice
Experimental: For this purpose, MCF7 cancer cells were procured from ATCC and grown in DMEM Medium supplemented with 10% FBS and 1% penicillin streptomycin. Cells were harvested when they reach 70-80% confluence for tumor implantation. 24 h prior to MCF7 cells implantation, the skin area around the injection site of nude mice were disinfected by mildly swabbing with surgical spirit. […] pellet (0.18 mg/pellet 60-day release, Innovative Research of America) was subcutaneously implanted into in the left flank region of the animals. For cell inoculation, cells were mixed with equal volume of Matrigel in a 1:1 ratio followed by injection of 5×10^6 MCF7 cells subcutaneously on the right flank region using a 1 mL syringe attached to a 24 G needle. On the subsequent days the injection site was monitored for tumor palpability. Tumor grafts were measured within 7-8 days of cell inoculation for tumor palpability. […]
After randomization, treatment was initiated when the average tumor volume reaches −200±50 mm^3. Tumor volume and mouse body weight were measured on the first day of treatment (Day 1) and then three times per week till 28 days as shown in FIG. 4. […]
Tumor volume (mm^3) was calculated using the formula, tumor length×(tumor width)2/2. Tumor growth inhibition will be calculated after normalizing the values to that on day 1. % TGI was calculated based on the formula below.

[2] = Pharmacokinetic study in monkey, single oral dose; assay type: in vivo; conditions: 50 mg/kg single oral; Cynomolgus monkey; plasma
Experimental: The objective of the study was to evaluate pharmacokinetic exposure of compound 121 after per oral dosing at 25 mg/kg dose and Fulvestrant after per oral dosing at 50 mg/kg dose in Cynomolgus monkey. The study was performed in overnight fasted Cynomolgus monkeys.
Blood samples were collected at each time points like 0 h (pre-dose) and 0.25, 0.5, 1, 2, 4, 8, 12, 24, 36 and 48 h post-dose via the cephalic or saphenous veins into polyethylene microcentrifuge tubes containing potassium (K2) EDTA. There were total 11 time points, n=1 monkey. All blood samples were mixed well by inversion and placed on wet ice until processed for plasma. Blood samples were centrifuged at 2˜8° C. for 10 min at 3000 g to collect plasma. Plasma samples of approximately […] at each time point were used for the bioanalysis. The plasma samples were stored frozen in a freezer set to maintain −60° C. to −70° C. until LC/MS/MS analysis.
Bioanalysis was performed using fit-for-purpose LC-MS/MS method for the quantification of compound 121 or Fulvestrant in plasma samples. The calibration curve was prepared in stabilized blank monkey plasma over 1-1000 ng/mL range for compound 121 and 1-3000 ng/mL range for Fulvestrant. Samples were cleaned up using the protein precipitation technique and analysed by LC-MS/MS.
The plasma pharmacokinetic parameters were calculated using standard non-compartmental analysis (using linear trapezoidal method with linear interpolation.)

in vitro [3] = conditions: human, microsomes, pH 7.4
Experimental: The assay was performed in duplicate.
Supernatant (200 μL) from each reaction tube was taken for LC-MS/MS analysis.

CACO-2 cell line = conditions: standard compounds at 5 μM; apical to basolateral

efflux ratio at 5 μM (in vitro [1]): 19.7
Structure (SMILES): C[C@H]1O[C@@H](O[C@H]2[C@@H](O)C[C@H](O[C@H]3[C@@H](O)C[C@H](O[C@H]4CC[C@@]5(C)[C@H](CC[C@@H]6[C@@H]5C[C@@H](O)[C@]5(C)[C@@H](C7=CC(=O)OC7)CC[C@]65O)C4)O[C@@H]3C)O[C@@H]2C)C[C@H](O)[C@@H]1O [Digoxin]

AUC % Extrap [2]: Inestimable
AUC_0-t [2]: Inestimable
AUC_0-∞ [2]: Inestimable
Cmax [2]: Inestimable
Tmax [2]: Inestimable
Structure (SMILES): C[C@]12CC[C@@H]3c4ccc(O)cc4C[C@@H](CCCCCCCCC[S+]([O-])CCCC(F)(F)C(F)(F)F)[C@H]3[C@@H]1CC[C@@H]2O (stereo partly drawn) [Fulvestrant]
% Tumor Growth Inhibition (% TGI) on day 28 (MCF7 tumor): 101%

Structure (SMILES): CC(=O)N1CCN(c2ccc(OCC3COC(Cn4ccnc4)(c4ccc(Cl)cc4Cl)O3)cc2)CC1 (stereo not drawn) [Ketoconazole]
half-life (in vitro [3]): > 120 min

Structure (SMILES): CC(C)NCC(O)COc1cccc2ccccc12 (stereo not drawn) [Propranolol]
A-B permeability (CACO-2 cell line): 6.215e-05 cm/s
